Key:
Type in all cases: biochemical
Settings in all cases: D-compounds panel data; 1 μM ATP
ITK = target: T1, ITK (Homo sapiens, UniProt Q08881); test: Inhibition of a panel of kinases, in vitro HotSpot kinase assay: ITK
T1 sequence (Q08881 1-620): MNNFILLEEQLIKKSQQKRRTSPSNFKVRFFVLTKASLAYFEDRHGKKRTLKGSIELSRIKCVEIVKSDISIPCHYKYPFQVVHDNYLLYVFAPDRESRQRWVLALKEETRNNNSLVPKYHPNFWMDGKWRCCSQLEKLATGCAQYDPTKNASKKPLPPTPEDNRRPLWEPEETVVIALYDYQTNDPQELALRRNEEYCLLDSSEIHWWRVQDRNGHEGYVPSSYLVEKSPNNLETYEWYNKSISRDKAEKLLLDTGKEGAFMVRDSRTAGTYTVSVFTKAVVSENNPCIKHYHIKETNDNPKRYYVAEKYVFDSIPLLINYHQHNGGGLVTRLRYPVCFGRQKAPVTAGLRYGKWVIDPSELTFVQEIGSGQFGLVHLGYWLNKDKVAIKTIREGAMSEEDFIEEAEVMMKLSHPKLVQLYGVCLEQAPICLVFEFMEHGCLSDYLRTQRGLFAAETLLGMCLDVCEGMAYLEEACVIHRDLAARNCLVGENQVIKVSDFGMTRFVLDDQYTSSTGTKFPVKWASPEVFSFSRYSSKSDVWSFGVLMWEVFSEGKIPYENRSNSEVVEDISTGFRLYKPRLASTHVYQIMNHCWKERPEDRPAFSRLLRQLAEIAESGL
Protocol: (§1) The degree of inhibition of a panel of kinases is determined using the in vitro HotSpot kinase assay (purified enzymes, ^33P-ATP, an appropriate substrate and 1 μM ATP).

TEC = target: T2, TEC (Homo sapiens, UniProt P42680); test: Inhibition of a panel of kinases, in vitro HotSpot kinase assay: TEC
T2 sequence (P42680 1-631): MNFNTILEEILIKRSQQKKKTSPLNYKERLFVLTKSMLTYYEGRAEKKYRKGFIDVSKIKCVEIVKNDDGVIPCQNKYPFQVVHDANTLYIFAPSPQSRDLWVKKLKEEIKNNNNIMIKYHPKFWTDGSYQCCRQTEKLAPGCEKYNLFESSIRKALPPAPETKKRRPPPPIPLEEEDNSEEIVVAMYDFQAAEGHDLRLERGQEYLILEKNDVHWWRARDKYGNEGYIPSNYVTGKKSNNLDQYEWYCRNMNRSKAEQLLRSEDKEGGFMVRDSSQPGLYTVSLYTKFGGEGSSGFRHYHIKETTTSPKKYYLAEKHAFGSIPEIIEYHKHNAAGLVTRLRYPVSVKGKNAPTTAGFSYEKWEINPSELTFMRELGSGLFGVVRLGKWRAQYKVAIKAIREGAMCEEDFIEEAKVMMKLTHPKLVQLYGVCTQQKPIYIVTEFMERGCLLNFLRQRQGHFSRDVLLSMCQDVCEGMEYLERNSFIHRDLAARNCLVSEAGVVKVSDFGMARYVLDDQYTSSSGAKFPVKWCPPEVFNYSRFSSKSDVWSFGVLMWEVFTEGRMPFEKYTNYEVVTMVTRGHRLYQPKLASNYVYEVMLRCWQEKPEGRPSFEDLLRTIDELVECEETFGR
Protocol: as §1

EGFR = EGFR (Homo sapiens, UniProt P00533); test: Inhibition of a panel of kinases, in vitro HotSpot kinase assay: EGFR
Sequence of EGFR (P00533 25-1210): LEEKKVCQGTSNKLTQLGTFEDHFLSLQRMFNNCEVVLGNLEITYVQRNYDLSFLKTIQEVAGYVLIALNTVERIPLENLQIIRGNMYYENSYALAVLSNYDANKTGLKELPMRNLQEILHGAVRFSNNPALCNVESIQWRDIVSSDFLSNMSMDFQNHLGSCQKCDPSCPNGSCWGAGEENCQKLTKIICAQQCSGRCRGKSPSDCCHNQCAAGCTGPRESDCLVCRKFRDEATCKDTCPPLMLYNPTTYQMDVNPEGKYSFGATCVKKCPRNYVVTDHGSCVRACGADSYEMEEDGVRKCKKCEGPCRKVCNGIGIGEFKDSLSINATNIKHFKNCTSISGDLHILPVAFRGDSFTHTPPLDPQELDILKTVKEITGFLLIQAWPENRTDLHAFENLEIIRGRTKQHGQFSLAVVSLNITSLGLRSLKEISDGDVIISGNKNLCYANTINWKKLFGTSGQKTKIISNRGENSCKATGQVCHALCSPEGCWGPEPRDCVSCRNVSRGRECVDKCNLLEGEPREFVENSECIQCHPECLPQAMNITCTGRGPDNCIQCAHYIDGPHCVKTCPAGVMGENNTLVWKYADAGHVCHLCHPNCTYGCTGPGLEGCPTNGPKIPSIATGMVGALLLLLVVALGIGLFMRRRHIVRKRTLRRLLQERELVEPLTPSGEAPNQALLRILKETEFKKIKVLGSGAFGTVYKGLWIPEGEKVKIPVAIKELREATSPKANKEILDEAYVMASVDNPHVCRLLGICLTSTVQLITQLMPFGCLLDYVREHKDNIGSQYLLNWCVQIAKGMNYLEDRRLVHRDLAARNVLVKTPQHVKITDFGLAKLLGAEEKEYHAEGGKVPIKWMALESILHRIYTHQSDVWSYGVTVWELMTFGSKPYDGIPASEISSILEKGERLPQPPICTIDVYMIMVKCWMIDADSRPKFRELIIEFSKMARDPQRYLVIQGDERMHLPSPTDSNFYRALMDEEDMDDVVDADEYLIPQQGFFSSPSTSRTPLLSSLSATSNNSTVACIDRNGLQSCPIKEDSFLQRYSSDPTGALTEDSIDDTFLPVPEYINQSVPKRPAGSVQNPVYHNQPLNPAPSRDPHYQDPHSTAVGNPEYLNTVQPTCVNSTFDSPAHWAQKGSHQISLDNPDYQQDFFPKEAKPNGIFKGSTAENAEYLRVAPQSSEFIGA
Protocol: as §1

| Structure (SMILES) | IC50 (ITK) [nM] | IC50 (TEC) [nM] | IC50 (EGFR) [nM] |
| --- | --- | --- | --- |
| C[C@@H]1[C@H](NC(=O)c2ccc(C3CC3)cc2)CCCN1c1cnc(C(N)=O)c(Nc2cnn(C)c2C(F)(F)F)n1 [Example D-276, 5-[(2R,3R)-3-(4-cyclopropylbenzamido)-2-methylpiperidin-1-yl]-3-{[1-methyl-5-(trifluoromethyl)-1H-pyrazol-4-yl]amino}pyrazine-2-carboxamide] | > 10000 | > 10000 | > 10000 |
| C[C@@H]1[C@H](NC(=O)c2ccc(C3CC3)cc2)CCCN1c1nnc(C(N)=O)c(Nc2cnn(C)c2)n1 [Example D-277, 3-[(2R,3R)-3-(4-cyclopropylbenzamido)-2-methylpiperidin-1-yl]-5-[(1-methyl-1H-pyrazol-4-yl)amino]-1,2,4-triazine-6-carboxamide] | 100 to 1000 | ≤ 10 | 1000 to 10000 |
| C[C@@H]1[C@H](NC(=O)c2ccc(C3CC3)cc2)CCCN1c1cnc(C(N)=O)c(Nc2cn(C)nc2C(F)(F)F)n1 [Example D-278, 5-[(2R,3R)-3-(4-cyclopropylbenzamido)-2-methylpiperidin-1-yl]-3-{[1-methyl-3-(trifluoromethyl)-1H-pyrazol-4-yl]amino}pyrazine-2-carboxamide] | > 10000 | > 10000 | > 10000 |
| C[C@@H]1[C@H](NC(=O)c2ccc(C3CC3)cc2)CCCN1c1cnc(C(N)=O)c(Nc2cnn(C3CC3)c2)n1 [Example D-279, 3-[(1-cyclopropyl-1H-pyrazol-4-yl)amino]-5-[(2R,3R)-3-(4-cyclopropylbenzamido)-2-methylpiperidin-1-yl]pyrazine-2-carboxamide] | 100 to 1000 | ≤ 10 | 1000 to 10000 |
| C[C@@H]1[C@H](NC(=O)c2ccc(C3CC3)cc2)CCCN1c1cnc(C(N)=O)c(Nc2cnn(C3CCNCC3)c2)n1 [Example D-280, 5-[(2R,3R)-3-(4-cyclopropylbenzamido)-2-methylpiperidin-1-yl]-3-{[1-(piperidin-4-yl)-1H-pyrazol-4-yl]amino}pyrazine-2-carboxamide] | 10 to 100 | ≤ 10 | 1000 to 10000 |
| C[C@@H]1[C@H](NC(=O)c2ccc(C3CC3)cc2)CCCN1c1cnc(C(N)=O)c(Nc2cnn(CCO)c2)n1 [Example D-281, 5-[(2R,3R)-3-(4-cyclopropylbenzamido)-2-methylpiperidin-1-yl]-3-{[I-(2-hydroxyethyl)-1H-pyrazol-4-yl]amino}pyrazine-2-carboxamide] | 100 to 1000 | 10 to 100 | 1000 to 10000 |
| C[C@@H]1[C@H](NC(=O)c2ccc(C3CC3)cc2)CCCN1c1cnc(C(N)=O)c(Nc2cn[nH]c2)n1 [Example D-282, 5-[(2R,3R)-3-(4-cyclopropylbenzamido)-2-methylpiperidin-1-yl]-3-[(1H-pyrazol-4-yl)amino]pyrazine-2-carboxamide] | 100 to 1000 | 10 to 100 | 1000 to 10000 |
| CC(=O)N1CCC(n2cc(Nc3nc(N4CCC[C@@H](NC(=O)c5ccc(C6CC6)cc5)[C@H]4C)cnc3C(N)=O)cn2)CC1 [Example D-283, 3-{[1-(1-acetylpiperidin-4-yl)-1H-pyrazol-4-yl]amino}-5-[(2R,3R)-3-(4-cyclopropylbenzamido)-2-methylpiperidin-1-yl]pyrazine-2-carboxamide] | 100 to 1000 | ≤ 10 | 1000 to 10000 |
| C[C@@H]1[C@H](NC(=O)c2ccc(C3CC3)cc2)CCCN1c1cnc(C(N)=O)c(Nc2cnn(-c3ccncc3)c2)n1 [Example D-284, 5-[(2R,3R)-3-(4-cyclopropylbenzamido)-2-methylpiperidin-1-yl]-3-{[1-(pyridin-4-yl)-1H-pyrazol-4-yl]amino}pyrazine-2-carboxamide] | 100 to 1000 | ≤ 10 | > 10000 |
| C[C@@H]1[C@H](NC(=O)c2ccc(C(C)(C)C)cc2)CCCN1c1nnc(C(N)=O)c(Nc2cnn(C)c2)n1 [Example D-285, 3-[(2R,3R)-3-(4-tert-butylbenzamido)-2-methylpiperidin-1-yl]-5-[(1-methyl-1H-pyrazol-4-yl)amino]-1,2,4-triazine-6-carboxamide] | 10 to 100 | ≤ 10 | 1000 to 10000 |
| C[C@@H]1[C@H](NC(=O)N(C)C)CCCN1c1nnc(C(N)=O)c(Nc2cnn(C)c2)n1 [Example D-286, 3-[(2R,3R)-3-[(dimethylcarbamoyl)amino]-2-methylpiperidin-1-yl]-5-[(1-methyl-1H-pyrazol-4-yl)amino]-1,2,4-triazine-6-carboxamide] | 10 to 100 | 10 to 100 | 1000 to 10000 |
| C[C@@H]1[C@H](NC(=O)c2ccc(C3CC3)cc2)CCCN1c1cnc(C(N)=O)c(Nc2cnn(CC#N)c2)n1 [Example D-287, 3-{[1-(cyanomethyl)-1H-pyrazol-4-yl]amino}-5-[(2R,3R)-3-(4-cyclopropylbenzamido)-2-methylpiperidin-1-yl]pyrazine-2-carboxamide] | 100 to 1000 | ≤ 10 | > 10000 |
| C[C@@H]1[C@H](NC(=O)c2ccc(C3CC3)cc2)CCCN1c1cnc(C(N)=O)c(Nc2cnn(C3CCN(C(=O)C4CC4)CC3)c2)n1 [Example D-288, 3-{[1-(1-cyclopropanecarbonylpiperidin-4-yl)-1H-pyrazol-4-yl]amino}-5-[(2R,3R)-3-(4-cyclopropylbenzamido)-2-methylpiperidin-1-yl]pyrazine-2-carboxamide] | 100 to 1000 | ≤ 10 | 1000 to 10000 |
| C[C@@H]1[C@H](NC(=O)c2ccc(C3CC3)cc2)CCCN1c1cnc(C(N)=O)c(Nc2cnn(C3CCN(C(=O)C4(C)COC4)CC3)c2)n1 [Example D-289, 5-[(2R,3R)-3-(4-cyclopropylbenzamido)-2-methylpiperidin-1-yl]-3-({1-[1-(3-methyloxetane-3-carbonyl)piperidin-4-yl]-1H-pyrazol-4-yl}amino)pyrazine-2-carboxamide] | 10 to 100 | ≤ 10 | 100 to 1000 |
| C[C@@H]1[C@H](NC(=O)c2ccc(C3CC3)cc2)CCCN1c1cnc(C(N)=O)c(Nc2cnn(C)c2F)n1 [Example D-290, 5-[(2R,3R)-3-(4-cyclopropylbenzamido)-2-methylpiperidin-1-yl]-3-[(5-fluoro-1-methyl-1H-pyrazol-4-yl)amino]pyrazine-2-carboxamide] | > 10000 | 100 to 1000 | 1000 to 10000 |
| C[C@@H]1[C@H](NC(=O)c2ccc(C(C)(C)C)cc2)CCCN1c1cnc(C(N)=O)c(Nc2ccc(OC3CCN(C)CC3)cc2)n1 [Example D-291, 5-[(2R,3R)-3-(4-tert-butylbenzamido)-2-methylpiperidin-1-yl]-3-({4-[(1-methylpiperidin-4-yl)oxy]phenyl}amino)pyrazine-2-carboxamide] | 10 to 100 | 10 to 100 | 100 to 1000 |
| C[C@@H]1[C@H](NC(=O)c2ccc(C(C)(C)C#N)cc2)CCCN1c1cnc(C(N)=O)c(Nc2ccc(OC3CCN(C)CC3)cc2)n1 [Example D-292, 5-[(2R,3R)-3-[4-(1-cyano-1-methylethyl)benzamido]-2-methylpiperidin-1-yl]-3-({4-[(1-methylpiperidin-4-yl)oxy]phenyl}amino)pyrazine-2-carboxamide] | 10 to 100 | ≤ 10 | 100 to 1000 |
| C[C@@H]1[C@H](NC(=O)c2ccc(C3CC3)cc2)CCCN1c1cnc(C(N)=O)c(Nc2cnn(C3CCN(CC(F)(F)F)CC3)c2)n1 [Example D-293, 5-[(2R,3R)-3-(4-cyclopropylbenzamido)-2-methylpiperidin-1-yl]-3-({1-[1-(2,2,2-trifluoroethyl)piperidin-4-yl]-1H-pyrazol-4-yl}amino)pyrazine-2-carboxamide] | 1000 to 10000 | 10 to 100 | > 10000 |
| C[C@@H]1[C@H](NC(=O)c2ccc(C3CC3)nc2)CCCN1c1cnc(C(N)=O)c(Nc2ccc(OC3CCN(C)CC3)cc2)n1 [Example D-294, 5-[(2R,3R)-3-(6-cyclopropylpyridine-3-amido)-2-methylpiperidin-1-yl]-3-({4-[(1-methylpiperidin-4-yl)oxy]phenyl}amino)pyrazine-2-carboxamide] | 10 to 100 | ≤ 10 | 100 to 1000 |

From US20210070748A1, “INHIBITORS OF BRUTONS TYROSINE KINASE” (Pharmacyclics LLC, priority 2015, published 2021)
